# Patent publication US9924723B2 (THE REGENTS OF THE UNIVERSITY OF COLORADO, A BODY CORPORATE, priority 2013, dated 2018)
# Legend:
# [1] = Metal desorption from pre-loaded GAC in phosphate or citrate buffer solutions at various pH; format: physicochemical
# Protocol: Phosphate or citrate buffering was used to stabilize pH. Points represent the mean of three observations. Error bars indicate standard deviation.
# The metal leaching behavior of the GAC impregnated with Cd^2+ or CrO4^2− ions was determined using phosphate or citrate buffer solutions as described herein. […] This is consistent with studies that found cadmium and other metal cations sorbed to activated carbon most strongly at high pH. […] Also, chromate anions have increased sorption to activated carbon at low pH.
# By delivering toxicity in the pH range where this transition between community types occurs, the metal-carbon formulations can prevent acidophile colonization. […] Cadmium cation sorption is more ideal for this corrosion prevention application because metal remains in solution as corrosion progresses to pH values below 6.
# [2] = test system: Halothiobacillus neapolitanus strains; conditions: cited from earlier work
# [3] = Leaching of metal from metal-carbon formulation in liquid media (total metal concentration); format: physicochemical
# [4] = Cadmium and chromium in corrosion product and pore water of treated field specimens (ICP-MS), pore water pH; format: physicochemical; conditions: after 70 days, Experiment B
# Protocol: Metal concentrations measured by inductively coupled plasma mass spectrometry (ICP-MS) of acid extracted samples.
# Cadmium and chromium were measured in dry sieved corrosion products for the treated samples in Experiment B, and are presented both as ng/g dry sieved fines as well as μM in pore water (FIG. 9). These metals are typically present in Portland Cement at average concentrations of 0.34 ng/g Cd and 76 ng/g Cr. […] Aside from one chromium outlier at 71 days, metal concentrations in the dry fine material after 50 days stayed relatively constant between 400 and 800 ng/g.
# Metal concentrations—micromolar levels of both cadmium and chomium—in pore water are also shown; these levels represent the concentrations which drive metal diffusion into bacterial cells on the corrosion front. Pore water concentrations increased to several μM after 70 days, and subsequently receded to less than 0.2 μM by the end of the experiment at 126 days (FIG. 9). This decrease is in pore water concentrations is due to a marked increase in surface moisture as the experiment progressed (up to 23% moisture), which diluted the released metal ions.
# [5] = between pH 1 and pH 6; cited from earlier work
# [6] = GAC impregnated with metal ions, phosphate or citrate buffer
SMILES,"Sorption to GAC as function of pH [1, 6]","pH below which ions can resorb onto the carbon ([1]; pre-loaded GAC, buffered solutions)",Effect on thiosulfate oxidation [2],Total metal concentration based on leaching experiments in media ([3]; pH 3) [mM],Total metal concentration based on leaching experiments in media ([3]; pH 5) [mM],"pH below which desorption from GAC increases [1, 6]",Metal concentration in pore water [4],Factor of increase of adsorption to activated carbon [5]
[O]=[Cr](=[O])([O-])[O-] [CrO4^−2],sorb strongly at pH above 7 and pH below 5,< 4,inhibit,,,,,
[Cd] [cadmium],,,,0.89,0.89,below 6,several,10
[Cr] [chromium],,,,0.00456,0.000822,,several,
